For data set [1] the following is noted: from C=CCN1CCN(c2cc(F)ncc2NC(=O)c2ccnc(NCC(C)(O)CC=C)n2)CC1; rcm bond; 18-membered ring; Zhan 1B; ClCH2CH2Cl; 4.5 mM; 70.0 °C; 1.5 h.
Another data set concerns the target GSK3α (Homo sapiens, UniProt P49840). As to the kind of experiment: GSK3α kinase assay (Caliper LabChip3000, fluoresceinated peptide substrate). Conditions: second value of cell; 250 pM enzyme, 20 uM ATP, 20 hours room temperature; read-out: GSK3β/α (nM): GSK3α IC50. It counts as biochemical. How it is done:
(§1) The kinase assay was performed in V-bottom 384-well plates. The final assay volume was 30 μl prepared from 15 μl additions of enzyme, substrates (fluoresceinated peptide FL-KRREILSRRP[ps]ERYR-NH2 and ATP) and test compounds in assay buffer (100 mM HEPES pH 7.4, 10 mM MgCl2, 25 mM Beta-Glycerolphosphate, 0.015% Brij35 and 0.25 mM DTT). The reaction was incubated at room temperature for 20 hours and terminated by adding 45 μl of 35 mM EDTA to each sample. The reaction mixture was analyzed on the Caliper LabChip3000 (Caliper, Hopkinton, Mass.) by electrophoretic separation of the unphosphorylated substrate and phosphorylated product. Inhibition data were calculated by comparison of the no enzyme control reactions for 100% inhibition and vehicle-only reactions for 0% inhibition. The final concentration of reagents in the assay were 250 pM GSK3α or GSK3β, 20 uM ATP, 1.5 uM FL-KRREILSRRP[ps]ERYR-NH2, and 1.6% DMSO. Dose response curves were generated to determine the concentration required to inhibit 50% of the kinase activity (IC50). Compounds were dissolved at 10 mM in dimethylsulfoxide (DMSO) and evaluated at eleven concentrations. IC50 values were derived by non-linear regression analysis.

For the next data set, the system named is pTau. Nature of the data set: pTau assay. Type of data set: cell-based.
The next data set deals with GSK3β (Homo sapiens, UniProt P49841). Nature of the data set: GSK3β kinase assay (Caliper LabChip3000, fluoresceinated peptide substrate). It counts as biochemical. Conditions: first value of cell; 250 pM enzyme, 20 uM ATP, 20 hours room temperature; read-out: GSK3β/α (nM): GSK3β IC50. As for the experimental part: as §1
The conditions of data set [2]: rcm bond, ClCH2CH2Cl, 70.0 °C.

Molecules are shown by their SMILES. Read-outs that look alike come from different tables or passages of the source.

GSK3β, sequence (P49841 whole entry, species assumed): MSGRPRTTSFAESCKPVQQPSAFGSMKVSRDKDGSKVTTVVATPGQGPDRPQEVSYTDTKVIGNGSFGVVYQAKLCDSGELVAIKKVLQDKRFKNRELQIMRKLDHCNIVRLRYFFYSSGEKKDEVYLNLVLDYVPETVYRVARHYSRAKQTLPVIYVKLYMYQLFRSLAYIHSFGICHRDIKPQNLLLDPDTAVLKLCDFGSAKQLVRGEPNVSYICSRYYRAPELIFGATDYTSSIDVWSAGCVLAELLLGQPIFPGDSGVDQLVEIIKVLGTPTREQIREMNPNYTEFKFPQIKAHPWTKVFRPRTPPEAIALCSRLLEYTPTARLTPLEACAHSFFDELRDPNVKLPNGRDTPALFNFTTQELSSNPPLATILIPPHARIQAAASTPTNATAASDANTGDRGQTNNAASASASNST
GSK3α, sequence (P49840 whole entry, species assumed): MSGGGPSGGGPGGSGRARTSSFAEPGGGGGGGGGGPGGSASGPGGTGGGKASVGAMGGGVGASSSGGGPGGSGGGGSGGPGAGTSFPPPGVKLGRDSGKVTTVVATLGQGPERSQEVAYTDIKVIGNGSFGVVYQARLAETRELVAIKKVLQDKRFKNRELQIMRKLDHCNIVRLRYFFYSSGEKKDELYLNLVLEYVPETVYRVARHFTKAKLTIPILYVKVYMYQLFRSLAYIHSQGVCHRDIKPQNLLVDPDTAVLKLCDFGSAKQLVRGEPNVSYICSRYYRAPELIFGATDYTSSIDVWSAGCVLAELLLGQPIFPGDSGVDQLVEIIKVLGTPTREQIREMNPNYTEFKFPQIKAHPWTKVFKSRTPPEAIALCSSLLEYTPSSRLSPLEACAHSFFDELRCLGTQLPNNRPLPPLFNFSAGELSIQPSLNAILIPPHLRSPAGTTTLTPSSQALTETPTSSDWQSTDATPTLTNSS

The molecule `CC1(O)CC=CCN2CCN(CC2)c2cc(F)ncc2NC(=O)c2ccnc(n2)NC1` (stereo not shown) returned a ring closure, yield after HPLC in data set [1] of 37%.
On to `O=C1Nc2cnccc2OCCC=CCCNc2nccc1n2` (mixture of isomers) [Example 8, 5-Oxa-3,12-diaza-1(4,2)-pyrimidina-4(3,4)-pyridinacyclododecaphan-8-en-2-one], for which the IC50 at GSK3α stood at 8.4 nM; in the data set on pTau, 0.634 µM; on GSK3β it was 8.1 nM. This molecule showed a ring closure, isolated yield in data set [2] (from C=CCCNc1nccc(C(=O)Nc2cnccc2OCCC=C)n1, 15-membered ring, Zhan 1B (50 mol%), 4.3 mM, 2.0 h) of 46%.
`CC1(O)CC=CCCOc2ccncc2NC(=O)c2ccnc(n2)NC1` (mixture of isomers) [Example 41, (E)-11-Hydroxy-11-methyl-5-oxa-3,13-diaza-1(4,2)-pyrimidina-4(3,4)-pyridinacyclotridecaphan-8-en-2-one]: the IC50 on GSK3α turned out to be 4.7 nM; in the data set with pTau, 0.266 µM; on GSK3β, 2.7 nM. The ring closure, isolated yield in data set [2] (from C=CCCOc1ccncc1NC(=O)c1ccnc(NCC(C)(O)CC=C)n1, 16-membered ring, Zhan 1B, 4.33 mM, 1.5 h) turned out to be 39%.
In the case of `O=C1Nc2cnccc2OCCC=CCNc2nccc1n2` (mixture of isomers) [Example 5, 5-Oxa-3,11-diaza-1(4,2)-pyrimidina-4(3,4)-pyridinacycloundecaphan-8-en-2-one], the figures for the IC50 on GSK3α, in the data set on pTau and at GSK3β were 12.1 nM, 1.5 µM and 13.5 nM, respectively. Also, in data set [2] (from C=CCCOc1ccncc1NC(=O)c1ccnc(NCC=C)n1, 14-membered ring, Zhan 1B (50 mol%), 4.55 mM, 2.0 h), the ring closure, isolated yield is 34%.

For the origin of these results see patent US11053258B2, “Pyrimidine carboxamides as GSK-3 inhibitors” (BRISTOL-MYERS SQUIBB COMPANY, priority 2016, dated 2021).
